According to patent publication US20250215071A1, “Novel Mcl-1 inhibitor and combination of Mcl-1 and a BH3 mimetic, such as a Bcl-2 inhibitor” (NETRIS PHARMA, priority 2022, published 2025):

System: caspase-9
Assay: UNC5B-induced caspase-9 activity in HeLa UNC5B cells
Assay type: cell-based, Human
Settings: Dox; 18 hours
Protocol: FIG. 5. UNC5B-mediated Mcl-1 degradation induces MOMP and caspase-9 activation. (A): UNC5B over-expression triggers Mitochondrial Outer Membrane Permeabilization (MOMP) in a COMMD2/CRL3 complex-dependent manner. Hela cells were transfected with scramble (siCTRL), COMMD2 (siCOMMD2-1) or RBX1 (siRBX1-1) siRNAs. 24 hours after transfection, cells were treated with Dox and after further 18 hours mitochondrial depolarization quantified by 5′,6,6′-tetrachloro-1,1′,3,3′-tetraethylbenzimi-dazolylcarbocyanine iodide (JC-1) dye staining, using NucleoCounter NC3000 (n=3, **** p<0.0001, ordinary two-way ANOVA with Tukey's multiple comparisons test). Values are given as means±SEM. (B,C,D): Apoptotic cell death induced by UNC5B over-expression requires caspase-9. HeLa UNC5B cells were transfected with scramble (siCTRL) or caspase-9 (siCASP9) siRNAs and 24 hours later treated with the indicated concentrations of Dox. Propidium iodide (PI)-positive cells were assessed in real-time up to 48 hours using Incucyte Zoom instrument (C) (n=[…], Kolmogorov-Smirnov test). DNA fragmentation was assessed by FACS analysis (D) and caspase-3 was measured using caspase-3 fluorometric kit (E), both 18 hours after treatment (n=[…], **** p<0.0001, ordinary two-way ANOVA with Šidák's multiple comparisons test). Values are given as means±SEM. […] HeLa UNC5B cells were treated with Dox and 18 hours later caspase-9 and -8 activities were assessed by fluorometric kit, using specific substrates (n=3, ^nsp>0.05, *p<0.05, Mann-Whitney test, one-tailed). […] 24 hours later, cells were treated with Dox and caspase-9 activity was measured by fluorometric kit (n=3, **** p<0.0001, ordinary two-way ANOVA with Tukey's multiple comparisons test). […] 18 hours after treatment, caspase-9 activity was assessed with the fluorometric kit (n=5, *p<0.05, ** p<0.01, *** p<0.001, **** p<0.0001, ordinary two-way ANOVA with Tukey's multiple comparisons test). […] Cells were then treated with Dox and Mcl-1 protein was evaluated by western blot. […]

CC(C)C[C@H](NC(=O)[C@H](Cc1ccccc1)NC(=O)c1cnccn1)B(O)O [bortezomib]
UNC5B-induced caspase-9 activation: sufficient to prevent UNC5B-induced caspase-9 activation
